From US9249085B2, “Aniline derivatives, their preparation and their therapeutic application” (FOVEA PHARMACEUTICALS, priority 2011, dated 2016)

Target: recombinant human prostanoid EP2 receptor (Homo sapiens (Human), UniProt P43116)
Test: Human prostanoid EP2 receptor cellular functional assay (cAMP, HTRF)
Type: cell-based
Settings: for EC50: CHO cells expressing recombinant human EP2, cAMP by HTRF, 30 min, 37° C., read-out: In vitro functional assay EP2 (h) EC50; for In vitro functional assay EP2 (h) % response: percent of control specific agonist response (10 μM PGE2)
Description: Test 1.2: Human Prostanoid EP2 Receptor Cellular Functional Assay
Human CHO cells expressing the recombinant human prostanoid EP2 receptor were suspended in assay medium (HBSS buffer (Invitrogen) containing 20 mM HEPES (pH7.4) and 500 μM isobutyl-methylxanthine IBMX) and plated out to yield approximately 1×10^4 cells/well in a 96-well. Following this, cells were incubated with agonists for 30 min in the presence of the test compounds. For stimulated control measurements, separate assay wells contain 10 μM PGE2 (control specific agonist). All incubations were carried out at 37° C. in a 5% CO2 atmosphere. Following incubation, the amount of cAMP in each well was determined by HTRF method. The cells are lysed and the fluorescence acceptor (D2-labeled cAMP) and fluorescence donor (anti-cAMP antibody labeled with europium cryptate) are added. After 60 min at room temperature, the fluorescence transfer is measured at λ ex=337 nm and λ em=620 and 665 nm using a microplate reader (Rubystar, BMG).
The cAMP concentration is determined by dividing the signal measured at 665 nm by that measured at 620 nm (ratio).
The standard reference agonist PGE2 was tested at several concentrations to generate a concentration-response curve to determined EC50.
Analysis and Expression of Results
The results are expressed as a percent of control specific agonist response ((measured specific response/control specific agonist response)×100) obtained in the presence of the test compounds. The EC50 values (concentration producing a half-maximal specific response) were determined by non-linear regression analysis of the concentration-response curves generated with mean replicate values using Hill equation curve fitting (Y=D+[(A−D)/(1+(C/C50)nH)], where Y=specific response, D=minimum specific response, A=maximum specific response, C=compound concentration, and C50=EC50 and nH=slope factor). This analysis was performed using a software developed at Cerep (Hill software) and validated by comparison with data generated by the commercial software SigmaPlot® 4.0 for Windows® (© 1997 by SPSS Inc.).

Chain of recombinant human prostanoid EP2 receptor (P43116 whole entry): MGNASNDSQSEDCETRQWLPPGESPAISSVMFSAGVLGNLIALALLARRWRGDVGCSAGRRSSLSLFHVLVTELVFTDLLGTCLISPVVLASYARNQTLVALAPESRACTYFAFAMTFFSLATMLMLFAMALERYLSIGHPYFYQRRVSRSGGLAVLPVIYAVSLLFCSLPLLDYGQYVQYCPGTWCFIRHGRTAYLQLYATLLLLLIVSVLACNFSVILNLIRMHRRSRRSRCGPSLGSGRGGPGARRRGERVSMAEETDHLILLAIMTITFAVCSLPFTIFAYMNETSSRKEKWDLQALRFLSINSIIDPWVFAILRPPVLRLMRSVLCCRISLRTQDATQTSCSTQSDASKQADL

Row | Structure (SMILES) | EC50 | In vitro functional assay EP2 (h) % response
1 | Cc1cc(-c2cc(F)cc(F)c2)cc(CNc2c(F)ccc(OCC(=O)O)c2F)c1C [I(ar), 2-[3-[[5-(3,5-difluorophenyl)-2,3-dimethyl-phenyl]methylamino]-2,4-difluoro-phenoxy]acetic acid] | 8 nM | 130%
2 | CC(Nc1c(F)ccc(OCC(=O)O)c1F)c1cc(-c2cccc(F)c2)ccc1F (racemic) [I(as), (R,S)-2-[2,4-difluoro-3-[1-[2-fluoro-5-(3-fluorophenyl)phenyl]ethylamino]phenoxy]acetic acid] | 11 nM | 107%
3 | Cc1cc(-c2ccccc2)cc(CNc2c(F)ccc(OCC(=O)O)c2F)c1C [I(au), 2-[3-[(2,3-dimethyl-5-phenyl-phenyl)methylamino]-2,4-difluoro-phenoxy]acetic acid] | 15 nM | 81%
4 | COc1c(C)cc(-c2cccc(F)c2)cc1CNc1c(F)ccc(OCC(=O)O)c1C [I(af), 2-[4-fluoro-3-[[5-(3-fluorophenyl)-2-methoxy-3-methyl-phenyl]methylamino]-2-methyl-phenoxy]acetic acid] | 5 nM | 70%
5 | Cc1cc(CNc2c(F)ccc(OCC(=O)O)c2C)c(F)c(-c2cccc(F)c2)c1 [I(ai), 2-[4-fluoro-3-[[2-fluoro-3-(3-fluorophenyl)-5-methyl-phenyl]methylamino]-2-methyl-phenoxy]acetic acid] | 35 nM | 80%
6 | Cc1cc(CNc2c(C)ccc(OCC(=O)O)c2C)cc(-c2cccc(F)c2)c1 [I(aj), 2-[3-[[3-(3-fluorophenyl)-5-methyl-phenyl]methylamino]-2,4-dimethyl-phenoxy]acetic acid] | 7 nM | 79%
7 | O=C(O)COc1ccc(F)c(NCc2cc(-c3cccc(F)c3)ccc2F)c1F [I(b), 2-[2,4-Difluoro-3-[[2-fluoro-5-(3-fluorophenyl)phenyl]methylamino]phenoxy]acetic acid] | 28 nM | 82%
8 | O=C(O)COc1ccc(F)c(NCc2cc(O)cc(-c3cccc(F)c3)c2F)c1F [I(f), 2-[2,4-Difluoro-3-[[2-fluoro-3-(3-fluorophenyl)-5-hydroxy-phenyl]methylamino]phenoxy]acetic acid] | 160 nM | 61%
9 | Cc1ccc(-c2cccc(F)c2)cc1CNc1c(F)ccc(OCC(=O)O)c1F [I(c), 2-[2,4-Difluoro-3-[[5-(3-fluorophenyl)-2-methyl-phenyl]methylamino]phenoxy]acetic acid] | 69 nM | 66%
10 | Cc1cc(OCC(=O)O)c(C)c(NCc2cc(-c3cccc(F)c3)ccc2F)c1F [I(ac), 2-[4-fluoro-3-[[2-fluoro-5-(3-fluorophenyl)phenyl]methylamino]-2,5-dimethyl-phenoxy]acetic acid] | 18 nM | 117%
11 | O=C(O)COc1ccc(F)c(NCc2cccc(-c3cccc(F)c3)c2)c1F [I(e), 2-[2,4-Difluoro-3-[[3-(3-fluorophenyl)phenyl]methylamino]phenoxy]acetic acid] | 160 nM | 65%
12 | Cc1cc(CNc2c(F)ccc(OCC(=O)O)c2C)cc(-c2cccc(F)c2)c1 [I(ae), 2-[4-fluoro-3-[[3-(3-fluorophenyl)-5-methyl-phenyl]methylamino]-2-methyl-phenoxy]acetic acid] | 3 nM | 83%
13 | O=C(O)COc1cccc(NCc2cc(-c3cccc(F)c3)ccc2F)c1 [I(a), 2-[3-[[2-Fluoro-5-(3-fluorophenyl)phenyl]methylamino]phenoxy]acetic acid] | 110 nM | 74%
14 | Cc1cc(CNc2c(F)ccc(OCC(=O)O)c2F)cc(-c2cccc(F)c2)c1 [I(d), 2-[2,4-Difluoro-3-[[3-(3-fluorophenyl)-5-methyl-phenyl]methylamino]phenoxy]acetic acid] | 35 nM | 74%
15 | COc1cc(CNc2c(C)ccc(OCC(=O)O)c2C)cc(-c2cccc(F)c2)c1 [I(ap), 2-[3-[[3-(3-fluorophenyl)-5-methoxy-phenyl]methylamino]-2,4-dimethyl-phenoxy]acetic acid] | 3 nM | 89%
16 | Cc1c(F)cc(-c2cccc(F)c2)cc1CNc1c(F)ccc(OCC(=O)O)c1C [I(av), 2-[4-fluoro-3-[[3-fluoro-5-(3-fluorophenyl)-2-methyl-phenyl]methylamino]-2-methyl-phenoxy]acetic acid] | 5 nM | 97%
17 | Cc1cc(OCC(=O)O)c(F)c(NCc2cc(-c3cccc(F)c3)ccc2F)c1F [I(ab), 2-[2,4-difluoro-3-[[2-fluoro-5-(3-fluorophenyl)phenyl]methylamino]-5-methyl-phenoxy]acetic acid] | 50 nM | 105%
18 | O=C(O)COc1cccc(CN(Cc2ccc(-n3cccn3)cc2)S(=O)(=O)c2cccnc2)c1 [CP-544326, reference compound] | 46 nM | 72%

Further lines, results first:

Row | EC50 | In vitro functional assay EP2 (h) % response | Structure (SMILES)
19 | 2 nM | 85% | Cc1cc(-c2cccc(F)c2)cc(CNc2c(F)ccc(OCC(=O)O)c2F)c1C [I(v), 2-[2,4-Difluoro-3-[[5-(3-fluorophenyl)-2,3-dimethyl-phenyl]methylamino]phenoxy]acetic acid]
20 | 17 nM | 72% | O=C(O)COc1ccc(F)c(NCc2c(F)ccc(-c3cccc(F)c3)c2F)c1F [I(s), 2-[3-[[2,6-Difluoro-3-(3-fluorophenyl)phenyl]methylamino]-2,4-difluoro-phenoxy]acetic acid]
21 | 18 nM | 70% | COc1cc(CNc2c(F)ccc(OCC(=O)O)c2F)cc(-c2cccc(F)c2)c1 [I(q), 2-[2,4-Difluoro-3-[[3-(3-fluorophenyl)-5-methoxy-phenyl]methylamino]phenoxy]acetic acid]
22 | 34 nM | 74% | O=C(O)COc1ccc(F)c(NCc2cc(-c3cccc(F)c3)ccc2F)c1Cl [I(o), 2-[2-Chloro-4-fluoro-3-[[2-fluoro-5-(3-fluorophenyl)phenyl]methylamino]phenoxy]acetic acid]
23 | 26 nM | 80% | Cc1ccc(OCC(=O)O)c(C)c1NCc1cc(-c2cccc(F)c2)ccc1F [I(j), 2-[3-[[2-Fluoro-5-(3-fluorophenyl)phenyl]methylamino]-2,4-dimethyl-phenoxy]acetic acid]
24 | 24 nM | 76% | O=C(O)COc1ccc(F)c(NCc2cc(-c3cccc(F)c3)ccc2Cl)c1F [I(l), 2-[3-[[2-Chloro-5-(3-fluorophenyl)phenyl]methylamino]-2,4-difluoro-phenoxy]acetic acid]
25 | 14 nM | 40% | O=C(O)COc1ccc(F)c(NCc2cc(-c3ccc(F)c(F)c3)ccc2F)c1F [I(w), 2-[3-[[5-(3,4-difluorophenyl)-2-fluoro-phenyl]methylamino]-2,4-difluoro-phenoxy]acetic acid]
26 | 99 nM | 73% | Cc1ccc(OCC(=O)O)c(F)c1NCc1cc(-c2cccc(F)c2)ccc1F [I(i), 2-[2-Fluoro-3-[[2-fluoro-5-(3-fluorophenyl)phenyl]methylamino]-4-methyl-phenoxy]acetic acid]
27 | 27 nM | 45% | N#Cc1cc(CNc2c(F)ccc(OCC(=O)O)c2F)cc(-c2cccc(F)c2)c1 [I(x), 2-[3-[[3-cyano-5-(3-fluorophenyl)phenyl]methylamino]-2,4-difluoro-phenoxy]acetic acid]
28 | 9 nM | 78% | Cc1cc(-c2cccc(F)c2)cc(CNc2c(F)ccc(OCC(=O)O)c2F)c1O [I(u), 2-[2,4-Difluoro-3-[[5-(3-fluorophenyl)-2-hydroxy-3-methyl-phenyl]methylamino]phenoxy]acetic acid]
29 | 52 nM | 86% | O=C(O)COc1ccc(F)c(NCc2cc(F)cc(-c3cccc(F)c3)c2)c1F [I(n), 2-[2,4-Difluoro-3-[[3-fluoro-5-(3-fluorophenyl)phenyl]methylamino]phenoxy]acetic acid]
30 | 130 nM | 62% | Cc1c(-c2cccc(F)c2)ccc(F)c1CNc1c(F)ccc(OCC(=O)O)c1F [I(y), 2-[2,4-difluoro-3-[[6-fluoro-3-(3-fluorophenyl)-2-methyl-phenyl]methylamino]phenoxy]acetic acid]
